Test results: patent US20230026869A1, “CRYSTAL FORM OF NUCLEOPROTEIN INHIBITOR AND USE THEREOF” (CHIA TAI TIANQING PHARMACEUTICAL GROUP CO., LTD., priority 2019, published 2023)

Legend:
CYP2C9 = biological target: T1, CYP2C9 (Homo sapiens, UniProt P11712); assay: Inhibition of human liver microsomal cytochrome P450 isoenzyme CYP2C9; type: in vitro ADME; conditions: human liver microsomes
T1 construct: from tissue; host or cells: human liver microsomes
Description: (§1) Objective: The inhibitory effect of the test compound on the activity of human liver microsomal cytochrome P450 isoenzymes (CYP1A2, CYP2C9, CYP2C19, CYP2D6 and CYP3A4) was determined. […]

CYP2D6 = biological target: T2, CYP2D6 (Homo sapiens, UniProt P10635); assay: Inhibition of human liver microsomal cytochrome P450 isoenzyme CYP2D6; type: in vitro ADME; conditions: human liver microsomes
T2 construct: from tissue; host or cells: human liver microsomes
T2 sequence (P10635 whole entry): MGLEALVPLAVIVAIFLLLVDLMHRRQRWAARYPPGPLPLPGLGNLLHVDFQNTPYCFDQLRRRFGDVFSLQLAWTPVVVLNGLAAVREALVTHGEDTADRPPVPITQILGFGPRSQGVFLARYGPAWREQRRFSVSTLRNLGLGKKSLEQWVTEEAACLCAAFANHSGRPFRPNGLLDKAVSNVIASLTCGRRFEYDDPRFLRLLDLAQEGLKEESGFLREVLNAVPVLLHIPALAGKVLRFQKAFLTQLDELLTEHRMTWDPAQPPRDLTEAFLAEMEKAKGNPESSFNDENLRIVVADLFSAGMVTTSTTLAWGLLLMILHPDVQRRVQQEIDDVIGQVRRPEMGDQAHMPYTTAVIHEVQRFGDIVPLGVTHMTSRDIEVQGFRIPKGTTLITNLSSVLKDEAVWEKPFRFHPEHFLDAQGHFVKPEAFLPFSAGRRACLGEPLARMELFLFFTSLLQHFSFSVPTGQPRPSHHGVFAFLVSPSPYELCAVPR
Description: as §1

[1] = Pharmacokinetic study in Balb/c mice by oral administration and intravenous injection; type: in vivo; conditions: mouse, Balb/c female mice, plasma
Description: Pharmacokinetic Study of the Test Compound in Balb/c Mice by Oral Administration and Intravenous Injection: The test compound was mixed with a solution containing dimethyl sulfoxide (101), polyethylene glycol 400 (600%) and water (300), and the mixture was vortexed and sonicated to prepare a 0.2 mg/mL clear solution, which was filtered through a millipore filter for later use. Balb/c female mice aged 7 to 10 weeks were intravenously injected with the candidate compound solution at a dose of 1 mg/kg. The test compound was mixed with an aqueous solution containing 10% polyoxyethylene stearate, and the mixture was vortexed and sonicated to prepare a 0.3 mg/mL clear solution for later use. Balb/c female mice aged 7 to 10 weeks were orally administered with the candidate compound solution at a dose of 3 mg/kg. Whole-blood was collected and plasma was prepared. Drug concentration was analyzed by LC-MS/MS and pharmacokinetic parameters were calculated with Phoenix WinNonlin software.

CYP2C19 = biological target: T3, CYP2C19 (Homo sapiens, UniProt P33261); assay: Inhibition of human liver microsomal cytochrome P450 isoenzyme CYP2C19; type: in vitro ADME; conditions: human liver microsomes
T3 construct: from tissue; host or cells: human liver microsomes
T3 sequence (P33261 whole entry): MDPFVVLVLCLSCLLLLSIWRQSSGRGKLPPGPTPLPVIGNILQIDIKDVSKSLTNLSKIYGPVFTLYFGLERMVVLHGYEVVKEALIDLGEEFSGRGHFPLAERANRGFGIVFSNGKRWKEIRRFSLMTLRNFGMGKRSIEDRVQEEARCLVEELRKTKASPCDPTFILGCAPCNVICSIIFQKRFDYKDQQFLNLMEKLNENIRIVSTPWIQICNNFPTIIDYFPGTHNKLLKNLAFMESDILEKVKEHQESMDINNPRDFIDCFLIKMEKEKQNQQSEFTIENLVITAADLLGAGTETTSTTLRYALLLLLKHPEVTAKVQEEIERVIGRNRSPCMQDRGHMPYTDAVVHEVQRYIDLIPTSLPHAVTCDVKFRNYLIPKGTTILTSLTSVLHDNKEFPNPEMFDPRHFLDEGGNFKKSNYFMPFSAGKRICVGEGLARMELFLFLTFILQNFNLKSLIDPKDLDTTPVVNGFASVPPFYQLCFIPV
Description: as §1

CYP1A2 = biological target: T4, CYP1A2 (Homo sapiens, UniProt P05177); assay: Inhibition of human liver microsomal cytochrome P450 isoenzyme CYP1A2; type: in vitro ADME; conditions: human liver microsomes
T4 construct: from tissue; host or cells: human liver microsomes
T4 sequence (P05177 1-516): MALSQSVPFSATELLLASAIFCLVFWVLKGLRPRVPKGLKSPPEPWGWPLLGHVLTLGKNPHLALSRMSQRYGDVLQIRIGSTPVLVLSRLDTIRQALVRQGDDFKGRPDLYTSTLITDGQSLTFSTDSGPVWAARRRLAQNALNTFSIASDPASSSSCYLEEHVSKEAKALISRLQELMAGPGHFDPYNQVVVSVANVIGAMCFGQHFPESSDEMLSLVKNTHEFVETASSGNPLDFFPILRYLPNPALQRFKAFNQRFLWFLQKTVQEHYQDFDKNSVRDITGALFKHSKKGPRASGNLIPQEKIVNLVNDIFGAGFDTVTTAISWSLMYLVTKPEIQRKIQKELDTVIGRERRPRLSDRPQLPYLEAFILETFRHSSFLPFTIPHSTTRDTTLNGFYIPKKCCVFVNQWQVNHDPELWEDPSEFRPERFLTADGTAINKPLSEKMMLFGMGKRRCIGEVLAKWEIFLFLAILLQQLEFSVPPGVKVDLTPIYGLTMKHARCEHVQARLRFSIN
Description: as §1

CYP3A4 = biological target: T5, CYP3A4 (Homo sapiens, UniProt P08684); assay: Inhibition of human liver microsomal cytochrome P450 isoenzyme CYP3A4; type: in vitro ADME; conditions: human liver microsomes
T5 construct: from tissue; host or cells: human liver microsomes
T5 sequence (P08684 whole entry): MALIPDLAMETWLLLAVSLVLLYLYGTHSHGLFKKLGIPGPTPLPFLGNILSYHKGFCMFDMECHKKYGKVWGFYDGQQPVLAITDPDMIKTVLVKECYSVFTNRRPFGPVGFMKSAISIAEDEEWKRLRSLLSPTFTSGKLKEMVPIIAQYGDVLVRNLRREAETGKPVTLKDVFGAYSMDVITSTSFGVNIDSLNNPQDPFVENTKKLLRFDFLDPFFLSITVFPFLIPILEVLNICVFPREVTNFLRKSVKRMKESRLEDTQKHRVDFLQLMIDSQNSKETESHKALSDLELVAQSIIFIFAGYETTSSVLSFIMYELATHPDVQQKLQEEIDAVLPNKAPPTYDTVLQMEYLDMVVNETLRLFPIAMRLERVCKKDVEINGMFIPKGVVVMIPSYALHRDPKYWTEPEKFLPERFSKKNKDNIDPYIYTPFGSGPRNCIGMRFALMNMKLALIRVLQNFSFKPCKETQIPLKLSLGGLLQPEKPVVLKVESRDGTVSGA
Description: as §1

T1 sequence (P11712 whole entry): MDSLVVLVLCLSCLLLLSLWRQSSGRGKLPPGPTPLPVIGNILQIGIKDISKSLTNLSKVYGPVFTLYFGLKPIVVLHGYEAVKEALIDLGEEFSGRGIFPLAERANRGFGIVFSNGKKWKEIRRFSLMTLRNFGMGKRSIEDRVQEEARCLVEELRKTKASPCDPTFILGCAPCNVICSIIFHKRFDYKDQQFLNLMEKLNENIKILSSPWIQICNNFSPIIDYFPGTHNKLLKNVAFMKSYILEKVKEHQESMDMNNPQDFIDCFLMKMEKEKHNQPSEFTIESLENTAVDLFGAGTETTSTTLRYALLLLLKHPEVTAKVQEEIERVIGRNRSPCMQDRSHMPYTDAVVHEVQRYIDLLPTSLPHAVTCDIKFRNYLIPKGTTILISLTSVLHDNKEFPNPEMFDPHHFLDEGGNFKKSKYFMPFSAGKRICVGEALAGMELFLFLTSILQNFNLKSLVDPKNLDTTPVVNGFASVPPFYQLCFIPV

With `CC1(NC(=O)C(=O)c2c(Cl)c(C(=O)Nc3cc(F)c(F)c(F)c3)c3n2CCC3)CCC(CC(=O)O)CC1` (stereo not shown) [Compound of formula (I)] the IC50 (CYP2C9) was > 50 µM, the IC50 (CYP2D6) was > 50 µM and the AUC ([1]; 3 mg/kg, PO 3 mpk, read-out: Area under the plasma concentration-time curve AUC) was 2.27 µM·h. The Cmax ([1]; 3 mg/kg, PO 3 mpk, read-out: Peak concentration Cmax) was 1480 nM, the Tmax ([1]; 3 mg/kg, PO 3 mpk, read-out: Peak time Tmax) was 0.5 h and the bioavailability ([1]; 3 mg/kg, PO 3 mpk vs IV 1 mg/kg, read-out: Bioavailability (F %)) was 51%. The Vd ([1]; IV 1 mg/kg, read-out: Apparent volume of distribution (Vdss)) was 3.1 L/kg, the AUC(0-t) ([1]; IV 1 mg/kg, read-out: Area under the plasma concentration-time curve AUC0-24 h) was 1.49 µM·h and the clearance ([1]; IV 1 mg/kg, read-out: Clearance (CL)) was 20 mL/min/kg. The half-life ([1]; IV 1 mg/kg, read-out: Half-life T1/2 (converted)) was 1.95 h, the IC50 (CYP2C19) was > 50 µM and the IC50 (CYP1A2) was > 50 µM. The IC50 (CYP3A4) was > 50 µM.
